In ChEMBL document CHEMBL4346659, “Design, synthesis and evaluation of novel 7H-pyrrolo[2,3-d]pyrimidin-4-amine derivatives as potent, selective and reversible Bruton's tyrosine kinase (BTK) inhibitors for the treatment of rheumatoid arthritis” (Eur J Med Chem, 2019):

Assays:
[1] = biological target: T1, Tyrosine-protein kinase BTK (Homo sapiens, UniProt Q06187); test: Inhibition of BTK (unknown origin) at 1 uM in the presence of ATP by caliper mobility shift assay relative to control
[2] = biological target: T1, Tyrosine-protein kinase BTK; test: Inhibition of BTK (unknown origin) at 0.1 uM in the presence of ATP by caliper mobility shift assay relative to control
[3] = tested on: Ramos; test: Antiproliferative activity against human Ramos cells; type: functional, cell-based; conditions: Homo sapiens, Ramos
[4] = tested on: JeKo-1; test: Antiproliferative activity against human JeKo1 cells; type: functional, cell-based; conditions: Homo sapiens, JeKo-1
[5] = tested on: Daudi; test: Antiproliferative activity against human Daudi cells; type: functional, cell-based; conditions: Homo sapiens, Daudi

T1 sequence (Q06187 whole entry): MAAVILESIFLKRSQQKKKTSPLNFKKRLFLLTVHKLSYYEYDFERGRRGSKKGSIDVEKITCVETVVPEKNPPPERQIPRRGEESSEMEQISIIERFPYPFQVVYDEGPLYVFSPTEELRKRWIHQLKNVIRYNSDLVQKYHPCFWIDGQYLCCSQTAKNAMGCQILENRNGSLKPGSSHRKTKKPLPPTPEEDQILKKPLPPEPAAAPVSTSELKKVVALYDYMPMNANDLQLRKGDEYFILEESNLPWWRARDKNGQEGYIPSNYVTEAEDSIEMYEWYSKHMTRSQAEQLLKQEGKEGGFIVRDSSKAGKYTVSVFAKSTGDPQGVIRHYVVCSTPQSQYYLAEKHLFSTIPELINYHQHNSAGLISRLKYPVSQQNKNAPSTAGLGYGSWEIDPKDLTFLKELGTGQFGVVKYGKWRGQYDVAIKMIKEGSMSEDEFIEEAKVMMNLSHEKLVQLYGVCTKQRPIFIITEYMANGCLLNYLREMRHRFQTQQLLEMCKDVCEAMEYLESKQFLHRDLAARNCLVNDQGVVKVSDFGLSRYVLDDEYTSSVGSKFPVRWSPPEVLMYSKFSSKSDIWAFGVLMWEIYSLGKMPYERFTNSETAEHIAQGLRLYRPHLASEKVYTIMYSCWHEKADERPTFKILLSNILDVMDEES

Nc1ncnc2c1c(-c1ccc3c(c1)OCO3)cn2[C@H]1CCN(S(=O)(=O)C2CC2)C1
inhibition [1]: 37.2% | inhibition [2]: 1.64% | IC50 [3]: 7.79 µM | IC50 [4]: 11.8 µM | IC50 [5]: 16.6 µM

CC(C)(C)c1ccc(Oc2ccc(-c3cn([C@H]4CCN(C[C@@H]5CO5)C4)c4ncnc(N)c34)cc2)cc1
inhibition [1]: 19.1% | inhibition [2]: 5.96% | IC50 [3]: 11.2 µM | IC50 [4]: 14.8 µM | IC50 [5]: 6.49 µM

CCOC(=O)C(C)N1CC[C@H](n2cc(-c3ccc4c(c3)OCO4)c3c(N)ncnc32)C1 (some centres not stated)
inhibition [1]: 44.1% | inhibition [2]: 5.71% | IC50 [3]: 9.92 µM | IC50 [4]: 1.21 µM | IC50 [5]: 25.5 µM

Nc1ncnc2c1c(-c1ccc3c(c1)OCO3)cn2C1CCN(C2COC2)CC1
inhibition [1]: 45.7% | inhibition [2]: 9.5% | IC50 [3]: 38 µM | IC50 [4]: 16.9 µM | IC50 [5]: 24.1 µM

Nc1ncnc2c1c(-c1ccc3c(c1)OCO3)cn2[C@H]1CCN(CC2CC2)C1
inhibition [1]: 15.2% | inhibition [2]: 0.04% | IC50 [3]: 16.9 µM | IC50 [4]: 1.45 µM | IC50 [5]: 24.6 µM

Nc1ncnc2c1c(-c1ccc3c(c1)OCO3)cn2[C@H]1CCN(CC2CCCO2)C1 (some centres not stated)
inhibition [1]: 18.9% | inhibition [2]: 3.01% | IC50 [3]: 27.1 µM | IC50 [4]: 3.88 µM | IC50 [5]: 25.9 µM

N#CCCN1CC[C@H](n2cc(-c3ccc4c(c3)OCO4)c3c(N)ncnc32)C1
inhibition [1]: 67.8% | inhibition [2]: 21.6% | IC50 [3]: 13.2 µM | IC50 [4]: 1.84 µM | IC50 [5]: 10.2 µM

Nc1ncnc2c1c(-c1ccc3c(c1)OCO3)cn2CC1CCCO1 (configuration not stated)
inhibition [1]: 21.8% | inhibition [2]: -6.11% | IC50 [3]: 24.2 µM | IC50 [4]: 17.1 µM | IC50 [5]: 20.9 µM

CC(C)(C)c1ccc(CN2CC[C@H](n3cc(-c4ccc5c(c4)OCO5)c4c(N)ncnc43)C2)cc1
inhibition [1]: 3% | inhibition [2]: 0.01% | IC50 [3]: 4.41 µM | IC50 [4]: 2.07 µM | IC50 [5]: 13.2 µM

Nc1ncnc2c1c(-c1ccc3c(c1)OCO3)cn2[C@H]1CCN(CCCO)C1
inhibition [1]: 22.4% | inhibition [2]: 8.43% | IC50 [3]: 20.9 µM | IC50 [4]: 3.13 µM | IC50 [5]: 29.6 µM

Nc1ncnc2c1c(-c1ccc3c(c1)OCO3)nn2C[C@H]1CCCN1C[C@@H]1CO1
inhibition [1]: 56.7% | inhibition [2]: 13.9% | IC50 [3]: 47.4 µM | IC50 [4]: 43.2 µM | IC50 [5]: 30.5 µM

Nc1ncnc2c1c(-c1cccc(-n3ncc4ccccc4c3=O)c1)cn2[C@H]1CCN(C[C@@H]2CO2)C1
inhibition [1]: 17.5% | inhibition [2]: 3.41% | IC50 [3]: 15.2 µM | IC50 [4]: 15.2 µM | IC50 [5]: 14.6 µM

COCCN1CC[C@H](n2cc(-c3ccc4c(c3)OCO4)c3c(N)ncnc32)C1
inhibition [1]: 8.09% | inhibition [2]: 14.3% | IC50 [3]: 21.2 µM | IC50 [4]: 6.74 µM | IC50 [5]: 4.3 µM

Nc1ncnc2c1c(-c1ccc3c(c1)OCO3)cn2C1=CCN(C[C@@H]2CO2)CC1
inhibition [1]: 42.6% | inhibition [2]: 1.81% | IC50 [3]: 2.11 µM | IC50 [4]: 12.8 µM | IC50 [5]: 5.02 µM

CC(C)(C)c1ccc(C(=O)Nc2cccc(-c3cn([C@H]4CCN(C[C@@H]5CO5)C4)c4ncnc(N)c34)c2)cc1
inhibition [1]: 22.2% | inhibition [2]: 2.29% | IC50 [3]: 4.82 µM | IC50 [4]: 2.54 µM | IC50 [5]: 5.97 µM

Nc1ncnc2c1c(-c1ccc3c(c1)OCO3)cn2C[C@H]1CCCN(C[C@@H]2CO2)C1
inhibition [1]: 70.3% | inhibition [2]: 34.7% | IC50 [3]: 15.1 µM | IC50 [4]: 7.96 µM | IC50 [5]: 10.6 µM

Nc1ncnc2c1c(-c1ccc3c(c1)OCO3)cn2CC1CCN(C[C@@H]2CO2)CC1
inhibition [1]: 59.9% | inhibition [2]: 14.2% | IC50 [3]: 10.9 µM | IC50 [4]: 15.3 µM | IC50 [5]: 12.5 µM

CN(C)CC(=O)N1CC[C@H](n2cc(-c3ccc4c(c3)OCO4)c3c(N)ncnc32)C1
inhibition [1]: 23.7% | inhibition [2]: -0.41% | IC50 [3]: 21 µM | IC50 [4]: 28.4 µM | IC50 [5]: 23.1 µM

Nc1ncnc2c1c(-c1cnc3[nH]ccc3c1)cn2C[C@H]1CCCN1C[C@@H]1CO1
inhibition [1]: 26.9% | inhibition [2]: 13.7%
